Seven molecules from patent publication US20240261418A1, “SOS1 DEGRADING AGENT AND PREPARATION METHOD THEREFOR AND APPLICATION THEREOF” (SHANGHAI LEADINGTAC PHARMACEUTICAL CO. LTD., priority 2021, published 2024) can be followed below.

For one assay, the target named is T1, KRAS-G12C/SOS1 (Homo sapiens, UniProt Q07889).
T1 construct: purchased Cisbio 63ADK000CB16PEG
T1 sequence (Q07889 1-1333): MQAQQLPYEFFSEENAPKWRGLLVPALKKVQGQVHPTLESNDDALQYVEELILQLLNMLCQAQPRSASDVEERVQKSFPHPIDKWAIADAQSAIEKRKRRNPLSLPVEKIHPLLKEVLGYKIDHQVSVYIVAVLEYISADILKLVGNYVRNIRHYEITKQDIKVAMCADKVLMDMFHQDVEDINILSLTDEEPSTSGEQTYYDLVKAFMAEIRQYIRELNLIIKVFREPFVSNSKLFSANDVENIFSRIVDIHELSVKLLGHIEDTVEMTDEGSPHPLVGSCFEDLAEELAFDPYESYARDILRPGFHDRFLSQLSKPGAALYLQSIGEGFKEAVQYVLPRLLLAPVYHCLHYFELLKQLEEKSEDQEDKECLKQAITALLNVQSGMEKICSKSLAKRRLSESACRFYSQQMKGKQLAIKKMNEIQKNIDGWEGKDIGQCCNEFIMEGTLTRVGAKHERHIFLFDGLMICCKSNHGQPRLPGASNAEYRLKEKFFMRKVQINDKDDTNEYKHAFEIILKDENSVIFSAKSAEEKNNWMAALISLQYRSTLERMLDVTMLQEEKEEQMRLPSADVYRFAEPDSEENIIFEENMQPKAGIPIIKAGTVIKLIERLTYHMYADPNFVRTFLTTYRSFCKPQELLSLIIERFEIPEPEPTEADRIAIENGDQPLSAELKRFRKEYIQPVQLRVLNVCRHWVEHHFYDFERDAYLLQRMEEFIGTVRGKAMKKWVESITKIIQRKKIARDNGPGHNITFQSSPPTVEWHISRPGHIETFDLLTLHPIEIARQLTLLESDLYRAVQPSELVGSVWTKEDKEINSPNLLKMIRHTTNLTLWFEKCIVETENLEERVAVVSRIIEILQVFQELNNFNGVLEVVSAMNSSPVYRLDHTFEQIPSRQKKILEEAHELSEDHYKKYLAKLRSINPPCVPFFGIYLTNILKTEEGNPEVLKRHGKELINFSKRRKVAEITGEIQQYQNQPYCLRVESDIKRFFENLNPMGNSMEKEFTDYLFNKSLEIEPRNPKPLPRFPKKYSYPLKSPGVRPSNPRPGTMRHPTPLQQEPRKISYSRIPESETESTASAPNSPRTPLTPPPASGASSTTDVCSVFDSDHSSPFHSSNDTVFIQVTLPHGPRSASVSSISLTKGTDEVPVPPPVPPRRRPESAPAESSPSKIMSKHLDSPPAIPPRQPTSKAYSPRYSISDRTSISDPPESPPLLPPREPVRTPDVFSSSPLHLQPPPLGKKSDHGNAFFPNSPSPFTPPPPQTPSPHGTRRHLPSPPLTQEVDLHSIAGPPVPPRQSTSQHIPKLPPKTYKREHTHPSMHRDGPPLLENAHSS
Kind of assay: KRAS-G12C/SOS1 binding assay (HTRF). As to conditions: inhibition of KRAS-G12C/SOS1 binding. The protocol:
Test Example 1: KRAS-G12C/SOS1 Binding Assay
The following method was used to determine the extent of inhibition of KRAS-G12C/SOS1 binding by the preferred compounds of the present invention under in vitro conditions. In this method, the competitive inhibition of KRAS-G12C/SOS1 binding by the preferred compounds was assayed by the homogeneous time-resolved fluorescence (HTRF) technology using the KRAS-G12C/SOS1 binding assay kit (Cisbio, 63ADK000CB16PEG).
The experimental procedures were as follows (refer to the kit instructions for details): the compounds of the present invention were each firstly dissolved in DMSO at a concentration of 20 mM, and then diluted in an equal gradient with a buffer in the kit, so that the final concentrations of the test compounds in the reaction system were in a range of 10000 nM-0.04 nM, and the final concentration of DMSO was 0.5%. 2 μL of the compounds were each incubated with 4 μL of 1×Tag1-SOS1, 4 μL of 1×Tag2-KRAS-G12C (containing 10 μM guanosine triphosphate, GTP) at 25° C. for 15 min. Then 5 μL of 1×Anti-Tag1-Tb3+ and 5 μL of 1×Anti-Tag2-XL665 were added to the reaction system, and the mixture was incubated on ice for 3 h. After the incubation, the fluorescence intensity of each well was measured at the excitation wavelength of 337 nm, the fluorescence intensity of each well was read at the emission wavelengths of 620 nm and 665 nm on a microplate reader EnVision (PerkinElmer, 2105) in an HTRF mode, and the Ratio value was calculated by the formula Ratio=(665 nm/620 nm)×[…]. The inhibition rates of the compounds at each concentration were calculated by comparing the fluorescence intensity ratio with that of the control group, and then nonlinear curve fitting was performed by GraphPad Prism 8 in the logarithmic concentration-inhibition rate to obtain the IC50 values of the compounds, as shown in Table 1.
In general terms: Time-resolved FRET reads energy transfer from a long-lived donor to a nearby acceptor.

The target of another assay is T2, SOS1 protein (Homo sapiens, UniProt Q07889).
T2 sequence (Q07889 1-1333): T1 sequence (Q07889 1-1333)
As to the kind of experiment: SOS1 degradation assay (Western blot) in NCI-H358 cells. The settings on record: NCI-H358 (KRAS G12C), 24 h. The class given is cell-based. How it is done: The specific procedures were as follows:
0.95 mL of cells were seeded into each well of a 24-well cell culture plate to achieve a cell density of 5×10^5 cells/well; the cell plate was incubated in an incubator at 37° C. with 5% CO2 overnight. Then 50 μL of the compound solution after dilution was added to each of the wells with the corresponding cells, so that the final concentration of the compound was in a range of 0.03-3000 nM.
After dosing, the cell plate was incubated in an incubator at 37° C. with 5% CO2 for 24 h. […] After the plate was left to stand on ice for 30 min, the protein lysate in each well was transferred to a 1.5 mL centrifuge tube and centrifuged at 15000 g for 20 min at 4° C. The cell lysate supernatant after centrifugation was cryopreserved at −80° C. for testing and was used for determining the degradation level of the SOS1 protein by a WB method. The concentration of total protein in the cell lysate supernatant was determined using the BCA Protein Quantification Kit (Tiangen, PA115-02).
The concentration of total protein in the cell lysate was determined by BCA. The total protein was adjusted to 0.5 μg/μL with PBS and 5×SDS- PAGE protein loading buffer (Beyotime, P001L), incubated in a water bath at 100° C. for 15 min, incubated in an ice bath on ice for 5 min, centrifuged at 14000 g for 1 min at 4° C., and mixed well as a loading sample for WB. Protein electrophoresis was performed on a precast gel (KeyGEN, KGMG010W15) with a loading volume of 10 μL (total protein: 5 μg) using a Tris-MOPS-SDS running solution (Adamas, P1598253) at a constant voltage of 120 V for 55 min. After the electrophoresis, the protein on the gel strip was transferred to a PVDF membrane at a constant current of 250 mA for 65 min. After the membrane transfer, the membrane was incubated in 1× QuickBlock blocking buffer (Beyotime, P0235) for 30 min at room temperature. […] The protein map was subjected to gray value analysis by the chemiluminescence imaging system from Clinx. […] Then the degradation rate was calculated by comparing the gray correction value with the gray correction value of the control group. Then nonlinear curve fitting was performed by GraphPad Prism 8 in the logarithmic concentration-inhibition rate to obtain the DC50 and Dmax values of the compounds.
In general terms: A western blot detects proteins with antibodies after separation by electrophoresis.

Bounds are passed on as bounds.

A word on the IC50: it is the midpoint of a concentration-inhibition curve. As usually defined, the DC50 is the midpoint of the concentration-degradation curve. One may read the Dmax as the greatest extent of degradation seen. A higher Dmax goes with deep degradation. In the case of `CNCc1ccccc1-c1csc([C@@H](C)Nc2nc(C)nc3cc(OC)c([C@H]4CC[C@H](C(=O)N5CCN(CC6CCC7(CC6)CCN(C(=O)c6ccc(Cl)c(N8CCC(=O)NC8=O)c6)CC7)CC5)CC4)cc23)c1` [Example 2, 1-(2-chloro-5-(9-((4-((1R,4R)-4-(7-methoxy-2-methyl-4-(((R)-1-(4-(2-((methylamino)methyl)phenyl)thien-2-yl)ethyl)amino)quinazolin-6-yl)cyclohexane-1-carbonyl)piperazin-1-yl)methyl)-3-azaspiro[5.5]undecane-3-carbonyl)phenyl)dihydropyrimidine-2,4(1H,3H)-dione], the IC50 at KRAS-G12C/SOS1 is no more than 0.015 µM. On SOS1 protein, the DC50 was less than 0.05 µM and the greatest degradation seen (Dmax) fell in the range of 80 to 100%.
As to `CNCc1ccccc1-c1csc([C@@H](C)Nc2nc(C)nc3cc(OC)c([C@H]4CC[C@H](C(=O)N5CCC(CCCC6CCN(C(=O)c7ccc(Cl)c(N8CCC(=O)NC8=O)c7)CC6)CC5)CC4)cc23)c1` [Example 3, 1-(2-chloro-5-(4-(3-(1-((1R,4R)-4-(7-methoxy-2-methyl-4-(((R)-1-(4-(2-((methylamino)methyl)phenyl)thien-2-yl)ethyl)amino)quinazolin-6-yl)cyclohexane-1-carbonyl)piperidin-4-yl)propyl)piperidine-1-carbonyl)phenyl)dihydropyrimidine-2,4(1H,3H)-dione], the IC50 on KRAS-G12C/SOS1 is 0.015 to 0.03 µM. For the same molecule, at SOS1 protein, the DC50 lay in the range of 0.1 to 0.5 µM and the greatest degradation seen (Dmax) lay within 50 to 80%.
For the molecule `COc1cc2nc(C)nc(N[C@@H](C)c3cc(N)cc(C(F)(F)F)c3)c2cc1[C@H]1CC[C@@H](C(=O)N2CCN(CCC3CCC4(CC3)CCN(C(=O)c3ccc(Cl)c(N5CCC(=O)NC5=O)c3)CC4)CC2)CC1` [Example 6, 1-(5-(9-(2-(4-((1S,4S)-4-(4-(((R)-1-(3-amino-5-(trifluoromethyl)phenyl)ethyl)amino)-7-methoxy-2-methylquinazolin-6-yl)cyclohexane-1-carbonyl)piperazin-1-yl)ethyl)-3-azaspiro[5.5]undecane-3-carbonyl)-2-chlorophenyl)dihydropyrimidine-2,4(1H,3H)-dione], on SOS1 protein, the DC50 was 1 to 10 µM and the “NCI-H358 (G12C) Dmax” value is given as “C (30≤Dmax (%)<50)”.
In the case of `CCNc1cc([C@@H](C)Nc2nc(C)nc3cc(OC)c([C@H]4CC[C@H](C(=O)N5CCN(CC6CCC7(CC6)CCN(C(=O)c6ccc(Cl)c(N8CCC(=O)NC8=O)c6)CC7)CC5)CC4)cc23)cc(C(F)(F)F)c1` [Example 7, 1-(2-chloro-5-(9-((4-((1R,4R)-4-(4-(((R)-1-(3-(ethylamino)-5-(trifluoromethyl)phenyl)ethyl)amino)-7-methoxy-2-methylquinazolin-6-yl)cyclohexane-1-carbonyl)piperazin-1-yl)methyl)-3-azaspiro[5.5]undecane-3-carbonyl)phenyl)dihydropyrimidine-2,4(1H,3H)-dione], the Dmax at SOS1 protein lay in the range of 30 to 50%.
As for `COc1cc2nc(C)nc(N[C@H](C)c3cc(N)cc(C(F)(F)F)c3)c2cc1[C@H]1CC[C@H](C(=O)N2CCC(CCCN(C)C3CCN(Cc4ccc(Cl)c(N5CCC(=O)NC5=O)c4)CC3)CC2)CC1` [Example 10, 1-(5-((4-((3-(1-((1R,4R)-4-(4-(((R)-1-(3-amino-5-(trifluoromethyl)phenyl)ethyl)amino)-7-methoxy-2-methylquinazolin-6-yl)cyclohexane-1-carbonyl)piperidin-4-yl)propyl)(methyl)amino)piperidin-1-yl)methyl)-2-chlorophenyl)dihydropyrimidine-2,4(1H,3H)-dione], the “NCI-H358 (G12C) Dmax” value at SOS1 protein was “D (Dma (%)<30)”.
For `COc1cc2nc(C)nc(N[C@H](C)c3cc(N)cc(C(F)(F)F)c3)c2cc1C1CCC(C(=O)N2CCC(CCOCC3CCN(C(=O)c4ccc5c(c4)C(=O)N(C4CCC(=O)NC4=O)C5=O)CC3)CC2)CC1` (stereo partly drawn) [Example 11, 5-(4-((2-(1-((1S,4S)-4-(4-(((R)-1-(3-amino-5-(trifluoromethyl)phenyl)ethyl)amino)-7-methoxy-2-methylquinazolin-6-yl)cyclohexane-1-carbonyl)piperidin-4-yl)ethoxy)methyl)piperidine-1-carbonyl)-2-(2,6-dioxopiperidin-3-yl)isoindoline-1,3-dione], the “NCI-H358 (G12C) Dmax” value at SOS1 protein is given as “A (80≤Dmax (%)≤100)”.
The same measure, in the same setting: under `Cc1nc(N[C@H](C)c2cc(N)cc(C(F)(F)F)c2)c2cc([C@H]3CC[C@H](C(=O)N4CCN(CC5CCC6(CC5)CCN(C(=O)c5ccc(Cl)c(N7CCC(=O)NC7=O)c5)CC6)CC4)CC3)ncc2n1` [Example 50, 1-(5-(9-((4-((1R,4R)-4-(4-(((R)-1-(3-amino-5-(trifluoromethyl)phenyl)ethyl)amino)-2-methylpyrido[3,4-d]pyrimidin-6-yl)cyclohexane-1-carbonyl)piperazin-1-yl)methyl)-3-azaspiro[5.5]undecane-3-carbonyl)-2-chlorophenyl)dihydropyrimidine-2,4(1H,3H)-dione] stands “B (50≤Dmax (%)<80)”.
